In PMC9195458, “Identification of antimalarial targets of chloroquine by a combined deconvolution strategy of ABPP and MS-CETSA” (Military Medical Research, 2022):

Tests used:
[1] = biological target: T1, PfTPI (Plasmodium falciparum, UniProt Q7KQM0); test: photo-affinity labelling, click TAMRA, in-gel fluorescence; format: binding; settings: covalent photo-crosslink on UV 365 nm; recombinant protein; competed by excess CQ
T1 construct: gene TPI

[2] = biological target: T2, PfPyrK (Plasmodium falciparum, UniProt C6KTA4); test: as above; format: binding; settings: covalent photo-crosslink on UV 365 nm; recombinant protein; competed by excess CQ
T2 construct: gene PF3D7_0626800
T2 sequence (C6KTA4 1-511): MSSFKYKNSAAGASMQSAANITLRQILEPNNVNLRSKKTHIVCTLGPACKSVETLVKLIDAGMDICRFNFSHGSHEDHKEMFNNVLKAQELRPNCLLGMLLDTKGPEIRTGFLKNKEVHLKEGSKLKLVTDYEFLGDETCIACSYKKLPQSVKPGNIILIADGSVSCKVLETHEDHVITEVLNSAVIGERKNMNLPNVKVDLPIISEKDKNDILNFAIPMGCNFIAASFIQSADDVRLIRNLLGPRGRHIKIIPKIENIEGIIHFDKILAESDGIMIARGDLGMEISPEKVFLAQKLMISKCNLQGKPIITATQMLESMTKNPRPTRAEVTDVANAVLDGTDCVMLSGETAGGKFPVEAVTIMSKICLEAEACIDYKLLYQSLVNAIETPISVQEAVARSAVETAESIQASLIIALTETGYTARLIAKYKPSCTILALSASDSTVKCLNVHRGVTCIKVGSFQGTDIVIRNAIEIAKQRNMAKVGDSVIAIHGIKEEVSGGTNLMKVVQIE

[3] = biological target: T3, PfLDH (Plasmodium falciparum, UniProt Q76NM3); test: as above; format: binding; settings: covalent photo-crosslink on UV 365 nm; recombinant protein; competed by excess CQ
T3 construct: gene PF3D7_1324900
T3 sequence (Q76NM3 1-316): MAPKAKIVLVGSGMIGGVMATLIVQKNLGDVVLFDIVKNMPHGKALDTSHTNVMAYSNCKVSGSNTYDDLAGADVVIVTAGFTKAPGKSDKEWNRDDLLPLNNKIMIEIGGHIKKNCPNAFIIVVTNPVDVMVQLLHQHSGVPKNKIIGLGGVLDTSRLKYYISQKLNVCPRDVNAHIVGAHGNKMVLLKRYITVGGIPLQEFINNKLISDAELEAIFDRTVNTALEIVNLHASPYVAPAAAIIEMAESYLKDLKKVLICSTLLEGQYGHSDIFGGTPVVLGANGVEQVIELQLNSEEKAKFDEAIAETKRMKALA

[4] = biological target: T4, PfOAT (Plasmodium falciparum, UniProt Q6LFH8); test: as above; format: binding; settings: covalent photo-crosslink on UV 365 nm; recombinant protein; competed by excess CQ
T4 construct: gene OAT
T4 sequence (Q6LFH8 1-414): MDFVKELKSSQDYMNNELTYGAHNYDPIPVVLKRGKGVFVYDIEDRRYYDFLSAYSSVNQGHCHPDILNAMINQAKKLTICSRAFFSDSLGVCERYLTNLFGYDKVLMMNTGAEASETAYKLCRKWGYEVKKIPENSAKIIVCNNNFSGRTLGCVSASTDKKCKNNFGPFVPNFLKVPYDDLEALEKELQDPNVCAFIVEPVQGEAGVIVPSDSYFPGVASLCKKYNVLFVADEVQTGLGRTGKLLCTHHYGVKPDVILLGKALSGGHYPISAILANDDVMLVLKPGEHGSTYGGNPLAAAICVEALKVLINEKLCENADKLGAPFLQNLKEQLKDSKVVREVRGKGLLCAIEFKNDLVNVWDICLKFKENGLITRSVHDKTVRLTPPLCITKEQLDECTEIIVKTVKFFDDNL

[5] = biological target: T5, PfPGK (Plasmodium falciparum, UniProt P27362); test: as above; format: binding; settings: covalent photo-crosslink on UV 365 nm; recombinant protein; competed by excess CQ
T5 construct: gene PGK
T5 sequence (P27362 1-416): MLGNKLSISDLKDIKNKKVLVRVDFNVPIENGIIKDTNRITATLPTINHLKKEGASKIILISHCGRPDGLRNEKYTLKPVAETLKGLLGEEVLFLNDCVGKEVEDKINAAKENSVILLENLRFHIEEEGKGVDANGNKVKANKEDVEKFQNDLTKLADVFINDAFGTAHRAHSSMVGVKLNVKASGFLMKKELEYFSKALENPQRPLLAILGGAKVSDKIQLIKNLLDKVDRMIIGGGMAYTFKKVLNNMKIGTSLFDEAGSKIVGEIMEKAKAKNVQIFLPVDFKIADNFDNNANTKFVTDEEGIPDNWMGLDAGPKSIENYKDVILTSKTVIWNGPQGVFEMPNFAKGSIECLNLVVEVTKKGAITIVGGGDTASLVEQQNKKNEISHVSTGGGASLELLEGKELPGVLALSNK

[6] = biological target: T3, PfLDH; test: SPR (BIAcore); format: binding; settings: read-out: KCQ-PfLDH
[7] = biological target: T5, PfPGK; test: SPR (BIAcore); format: binding; settings: read-out: KCQ-PfPGK
[8] = biological target: T6, plasmepsin IV (Plasmodium falciparum, UniProt Q8IM16); test: ITDR MS-CETSA thermal shift; format: biochemical; settings: parasite lysate, CQ 0-300 µmol/L; heated at 37, 52 or 61 °C
T6 construct: gene PMIV; native protein in soluble parasite lysate
T6 sequence (Q8IM16 122-449): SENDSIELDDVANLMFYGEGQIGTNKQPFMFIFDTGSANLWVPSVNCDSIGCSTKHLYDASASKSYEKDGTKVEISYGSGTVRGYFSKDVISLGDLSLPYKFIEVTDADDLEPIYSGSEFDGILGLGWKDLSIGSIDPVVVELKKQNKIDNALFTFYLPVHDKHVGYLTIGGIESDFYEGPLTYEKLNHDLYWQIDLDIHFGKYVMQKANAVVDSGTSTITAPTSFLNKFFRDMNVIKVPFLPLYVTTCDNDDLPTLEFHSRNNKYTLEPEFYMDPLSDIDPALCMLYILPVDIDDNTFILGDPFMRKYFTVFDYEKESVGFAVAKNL

[9] = biological target: T3, PfLDH; test: enzyme activity inhibition, dose-response; format: biochemical; settings: recombinant protein
[10] = biological target: T1, PfTPI; test: SPR (BIAcore); format: binding; settings: read-out: KCQ-PfTPI
[11] = biological target: T7, plasmepsin II (Plasmodium falciparum, UniProt Q8I6V3); test: ITDR MS-CETSA thermal shift; format: biochemical; settings: parasite lysate, CQ 0-300 µmol/L; heated at 37, 52 or 61 °C
T7 construct: gene PMII; native protein in soluble parasite lysate
T7 sequence (Q8I6V3 125-453): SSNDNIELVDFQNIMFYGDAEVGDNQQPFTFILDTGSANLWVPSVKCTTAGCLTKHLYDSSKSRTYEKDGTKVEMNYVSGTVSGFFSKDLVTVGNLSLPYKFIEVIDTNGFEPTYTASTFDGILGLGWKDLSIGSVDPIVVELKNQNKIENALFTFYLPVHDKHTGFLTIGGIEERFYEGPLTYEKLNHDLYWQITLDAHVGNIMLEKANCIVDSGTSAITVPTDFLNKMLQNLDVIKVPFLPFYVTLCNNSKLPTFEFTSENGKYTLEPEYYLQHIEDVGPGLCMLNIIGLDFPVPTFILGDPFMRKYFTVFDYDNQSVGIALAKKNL

[12] = biological target: T1, PfTPI; test: enzyme activity inhibition, dose-response; format: biochemical; settings: recombinant protein
[13] = biological target: T2, PfPyrK; test: enzyme activity inhibition, dose-response; format: biochemical; settings: recombinant protein
[14] = biological target: T4, PfOAT; test: SPR (BIAcore); format: binding; settings: read-out: KCQ-PfOAT
[15] = biological target: T5, PfPGK; test: enzyme activity inhibition, dose-response; format: biochemical; settings: recombinant protein
[16] = biological target: T4, PfOAT; test: enzyme activity inhibition, dose-response; format: biochemical; settings: recombinant protein
[17] = biological target: T2, PfPyrK; test: SPR (BIAcore); format: binding; settings: read-out: KCQ-PfPyrK
[18] = biological target: T8, falcilysin (Plasmodium falciparum, UniProt Q76NL8); test: ITDR MS-CETSA thermal shift; format: biochemical; settings: parasite lysate, CQ 0-300 µmol/L; heated at 37, 52 or 61 °C
T8 construct: gene FLN; native protein in soluble parasite lysate
T8 sequence (Q76NL8 1-1193): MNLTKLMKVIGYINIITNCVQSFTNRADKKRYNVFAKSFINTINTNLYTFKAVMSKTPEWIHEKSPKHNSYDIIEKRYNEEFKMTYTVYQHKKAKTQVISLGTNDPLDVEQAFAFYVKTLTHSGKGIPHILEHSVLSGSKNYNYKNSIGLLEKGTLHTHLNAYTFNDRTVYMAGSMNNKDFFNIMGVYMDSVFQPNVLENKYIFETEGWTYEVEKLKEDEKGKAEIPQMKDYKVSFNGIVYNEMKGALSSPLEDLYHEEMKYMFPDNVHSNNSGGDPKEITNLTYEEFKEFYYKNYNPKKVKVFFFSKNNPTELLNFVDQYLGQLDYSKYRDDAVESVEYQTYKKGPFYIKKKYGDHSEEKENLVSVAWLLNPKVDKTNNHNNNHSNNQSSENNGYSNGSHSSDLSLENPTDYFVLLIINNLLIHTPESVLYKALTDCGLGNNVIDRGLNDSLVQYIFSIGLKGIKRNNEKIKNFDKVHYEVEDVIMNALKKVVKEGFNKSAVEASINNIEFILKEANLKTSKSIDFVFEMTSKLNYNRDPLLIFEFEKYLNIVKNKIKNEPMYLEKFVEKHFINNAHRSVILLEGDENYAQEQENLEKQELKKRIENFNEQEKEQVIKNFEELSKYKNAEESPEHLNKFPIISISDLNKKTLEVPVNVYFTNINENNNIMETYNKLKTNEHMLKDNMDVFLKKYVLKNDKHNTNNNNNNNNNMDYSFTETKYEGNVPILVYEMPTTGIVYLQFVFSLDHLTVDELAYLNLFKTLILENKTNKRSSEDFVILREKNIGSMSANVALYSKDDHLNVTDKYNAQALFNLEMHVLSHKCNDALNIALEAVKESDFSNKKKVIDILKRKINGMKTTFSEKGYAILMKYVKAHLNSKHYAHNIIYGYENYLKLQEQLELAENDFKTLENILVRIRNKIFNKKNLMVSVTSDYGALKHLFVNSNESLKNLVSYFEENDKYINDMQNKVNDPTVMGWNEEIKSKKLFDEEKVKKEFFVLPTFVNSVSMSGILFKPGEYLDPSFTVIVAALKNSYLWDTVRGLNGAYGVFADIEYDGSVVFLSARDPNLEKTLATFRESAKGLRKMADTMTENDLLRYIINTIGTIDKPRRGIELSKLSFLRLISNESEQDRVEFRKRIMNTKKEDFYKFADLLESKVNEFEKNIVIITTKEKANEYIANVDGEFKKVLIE

T1 sequence (Q7KQM0 whole entry): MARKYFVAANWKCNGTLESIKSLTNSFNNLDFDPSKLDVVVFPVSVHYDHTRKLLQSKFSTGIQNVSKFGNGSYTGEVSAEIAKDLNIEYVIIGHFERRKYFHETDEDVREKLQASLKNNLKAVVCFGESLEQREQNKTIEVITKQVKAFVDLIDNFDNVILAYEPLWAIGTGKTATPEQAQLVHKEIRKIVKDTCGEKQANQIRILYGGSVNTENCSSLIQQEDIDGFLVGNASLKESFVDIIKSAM

Row | SMILES | photo-affinity labelling, click TAMRA, in-gel fluorescence [1] | photo-affinity labelling, click TAMRA, in-gel fluorescence [2] | photo-affinity labelling, click TAMRA, in-gel fluorescence [3] | photo-affinity labelling, click TAMRA, in-gel fluorescence [4] | photo-affinity labelling, click TAMRA, in-gel fluorescence [5] | Kd [6] [µM] | Kd [7] [µM] | thermal shift [8] | inhibition of enzymatic activity [9] | Kd [10] [µM] | thermal shift [11] | inhibition of enzymatic activity [12] | inhibition of enzymatic activity [13] | Kd [14] [µM] | inhibition of enzymatic activity [15] | inhibition of enzymatic activity [16] | Kd [17] [µM] | thermal shift [18]
1 | C#CCOCCC1(CCOCc2cn(CCCCC(=O)N(CC)CCCC(C)Nc3ccnc4cc(Cl)ccc34)nn2)N=N1 (stereo not drawn) [CQP] | CQP specifically binds to recombinant PfLDH, PfOAT, PfPyrK, PfPGK, and PfTPI proteins | CQP specifically binds to recombinant PfLDH, PfOAT, PfPyrK, PfPGK, and PfTPI proteins | CQP specifically binds to recombinant PfLDH, PfOAT, PfPyrK, PfPGK, and PfTPI proteins | CQP specifically binds to recombinant PfLDH, PfOAT, PfPyrK, PfPGK, and PfTPI proteins | CQP specifically binds to recombinant PfLDH, PfOAT, PfPyrK, PfPGK, and PfTPI proteins |  |  |  |  |  |  |  |  |  |  |  |  | 
2 | CCN(CC)CCCC(C)Nc1ccnc2cc(Cl)ccc12 (stereo not drawn) [CQ] |  |  |  |  |  | 0.32 | 1.95 | plasmepsin II and plasmepsin IV also showed significant thermal shift | CQ inhibits the enzymatic activities of the recombinant PfLDH (a) | 1.18 | plasmepsin II and plasmepsin IV also showed significant thermal shift | PfPGK (d) and PfTPI (e) proteins in vitro in a dose-dependent manner | CQ inhibits the enzymatic activities of the recombinant PfLDH (a), PfOAT (b), PfPyrK (c) | 1.91 | PfPGK (d) and PfTPI (e) proteins in vitro in a dose-dependent manner | CQ inhibits the enzymatic activities of the recombinant PfLDH (a), PfOAT (b) | 0.85 | falcilysin as well as other hemoglobin proteolytic enzymes
